Assay results as given in patent US20150050301A1, “Contiguous Overlapping Peptides for Treatment of House Dust Mites Allergy” (ANERGIS S.A., priority 2013, published 2015).
Like-named read-outs stand apart in the source and are kept apart here. Residues, ends and D or L forms follow the SMILES beside them. No end group written: not given here.

B1: SQHGCHGDTIPRGIEYIQHNGVVQESYYRYVAREQSCRRPNAQRFGISNYCQIYPPNVNKIREALAQTHSAIAVIIGIKDLDAFRH (peptide)
peptide: SQHGCHGDTIPRGIEYIQHNGVVQESYYRYVAREQSCRRPNAQRFGISNYCQIYPPNVNKIREALAQTHSAIAVIIGIKDLDAFRH
B2: AIAVIIGIKDLDAFRHYDGRTIIQRDNGYQPNYHAVNIVGYSNAQGVDYWIVRNSWDTNWGDNGYGYFAANIDLMMIEEYPYVVIL (peptide)
peptide: AIAVIIGIKDLDAFRHYDGRTIIQRDNGYQPNYHAVNIVGYSNAQGVDYWIVRNSWDTNWGDNGYGYFAANIDLMMIEEYPYVVIL
B3: TNACSINGNAPAEIDLRQMRTVTPIRMQGGCGSCWAFSGVAATESAYLAYRNQSLDLAEQELVDCA (peptide, listed as Dermatophagoides pteronyssinus)
chain: TNACSINGNAPAEIDLRQMRTVTPIRMQGGCGSCWAFSGVAATESAYLAYRNQSLDLAEQELVDCA
notes: Der p 1 contiguous overlapping peptide, 66AA
B4: TNACSINGNAPAEIDLRQMRTVTPIRMQGGCGSCWAFSGVAATESAYLAYRNQSLDLAEQELVDCASQHG (peptide, listed as Dermatophagoides pteronyssinus)
chain: TNACSINGNAPAEIDLRQMRTVTPIRMQGGCGSCWAFSGVAATESAYLAYRNQSLDLAEQELVDCASQHG
notes: Der p 1 contiguous overlapping peptide, 70AA, T99 to G168
B5: TNACSINGNAPAEIDLRQMRTVTPIRMQGGCGSCWAFSGVAATESAYLAYRNQSLDLAEQELVDCASQHGCHGDTIPRGIE (peptide, listed as Dermatophagoides pteronyssinus)
chain: TNACSINGNAPAEIDLRQMRTVTPIRMQGGCGSCWAFSGVAATESAYLAYRNQSLDLAEQELVDCASQHGCHGDTIPRGIE
notes: Der p 1 contiguous overlapping peptide, 81AA

Key:
[1] = Solubility Characteristics of COPs; format: physicochemical
Protocol: All COPs were synthesized by solid phase fmoc chemistry at research scale to allow determination of IgE binding. […] Peptides were resuspended either in water at 2 mg/ml or at 10 to 20 mg per ml in DMSO (see Table 1) and frozen in aliquots.

[2] = test system: IgE of sera of house dust mite allergic patients binding to nDer p 2; experiment: Competition ELISA on Der p 2 coated plates; parameters: species or system human; details: sera from patients allergic to house dust mites; COPs 10^−5 to 10^−10 M
Protocol: (§1) Purified Der p 1 or Der p 2 at 1.0 μg/ml were coated overnight on 96-well Nunc Maxisorp® immunoplates (Thermo Fisher Scientific Inc., Wohlen, Switzerland). After blocking with 1% BSA, either twenty-fold, thirty-fold or forty-fold up to 200-fold dilutions of patient serum were added depending on specific IgE content. […] Sera of allergic patients were obtained from US and Europe (PlasmaLab International, Everett, Wash., USA and Biomnis, Lyon, France) respectively) selected for positive CAP for D. pteronyssinus and clear signal over background and used to test for competition with the peptides. Serial dilutions of each set of COPs, namely for Der p 1 Set A, B, C or D and for Der p 2 mixes D, E or F at concentrations ranging from 10^−5 to 10^−10 M were pre-incubated with selected serums for 15 min. on ice.

[3] = test system: IgE of sera of house dust mite allergic patients binding to nDer p 1; experiment: Competition ELISA on Der p 1 coated plates; parameters: species or system human; details: for effect of denaturing salts on IgE binding (Der p 1 competition ELISA): denaturing salts incl. guanidinium chloride or urea, 30 min pre-incubation with 1M guanidinium chloride; for IgE binding in competition ELISA (Der p 1): sera from patients allergic to house dust mites, COPs 10^−5 to 10^−10 M
Protocol: as §1

| Molecule | Conc. ([1]; Solvent H2O) [µg/mL] | Conc. [1] [µg/mL] | IgE binding in competition ELISA (Der p 1) [3] | further results |
| --- | --- | --- | --- | --- |
| ASQHGCHGDTIPRGIEYIQHNGVVQESYYRYVAREQS [AllerDM1.53] | 4000 |  |  | solubility in words [1]: solubility in water |
| KYTWNVPKIAPKSENVVVTVKVLGDNGVLACAIATHAKIRD [AllerDM2.8] | 3500 |  |  |  |
| CC[C@H](C)[C@H](NC(=O)[C@H](CCC(=O)O)NC(=O)[C@H](Cc1c[nH]cn1)NC(=O)[C@H](CC(N)=O)NC(=O)[C@H](C)NC(=O)[C@H](CS)NC(=O)[C@H](CC(=O)O)NC(=O)[C@H](CCCCN)NC(=O)[C@@H](NC(=O)[C@H](CC(=O)O)NC(=O)[C@@H](NC(=O)[C@H](CCC(N)=O)NC(=O)[C@@H](N)CC(=O)O)C(C)C)C(C)C)C(=O)N[C@@H](CCCCN)C(=O)N[C@@H](CCCCN)C(=O)N[C@H](C(=O)N[C@@H](CC(C)C)C(=O)N[C@H](C(=O)N1CCC[C@H]1C(=O)NCC(=O)N[C@@H](CS)C(=O)N[C@@H](Cc1c[nH]cn1)C(=O)NCC(=O)N[C@@H](CO)C(=O)N[C@@H](CCC(=O)O)C(=O)O)C(C)C)C(C)C [AllerDM2.3] (H-DQVDVKDCANHEIKKVLVPGCHGSE-OH; N-terminus and C-terminus assumed) | 3000 |  |  |  |
| SEPCIIHRGKPFQLEALFEANQNSKTAKIEIKASIDGLEVDVPGIDPNACHYMKCPLVKGQQYDIKYTWNVPKIA [AllerDM2.7] |  | 3500 |  | IgE binding in competition ELISA (Der p 2) [2]: residual IgE binding |
| ASQHGCHGDTIPRGIEYIQHNGVVQESYYRYVAREQSCRRPNAQRFGISNYCQIYPPNVNKIRE [AllerDM1.52] |  | 2300 | still bound IgE | solubility in words [1]: solubility in water; effect of denaturing salts on IgE binding (Der p 1 competition ELISA) [3]: strongly diminished IgE binding |
| CC[C@H](C)[C@H](NC(=O)[C@H](CCC(=O)O)NC(=O)[C@H](Cc1c[nH]cn1)NC(=O)[C@H](CC(N)=O)NC(=O)[C@H](C)NC(=O)[C@H](CS)NC(=O)[C@H](CC(=O)O)NC(=O)[C@H](CCCCN)NC(=O)[C@@H](NC(=O)[C@H](CC(=O)O)NC(=O)[C@@H](NC(=O)[C@H](CCC(N)=O)NC(=O)[C@@H](N)CC(=O)O)C(C)C)C(C)C)C(=O)N[C@@H](CCCCN)C(=O)N[C@@H](CCCCN)C(=O)N[C@H](C(=O)N[C@@H](CC(C)C)C(=O)N[C@H](C(=O)N1CCC[C@H]1C(=O)NCC(=O)N[C@@H](CS)C(=O)N[C@@H](Cc1c[nH]cn1)C(=O)NCC(=O)N[C@@H](CO)C(=O)N[C@@H](CCC(=O)O)C(=O)N1CCC[C@H]1C(=O)N[C@@H](CS)C(=O)N[C@H](C(=O)N[C@H](C(=O)N[C@@H](Cc1c[nH]cn1)C(=O)N[C@@H](CCCNC(=N)N)C(=O)O)[C@@H](C)CC)[C@@H](C)CC)C(C)C)C(C)C [AllerDM2.6] (H-DQVDVKDCANHEIKKVLVPGCHGSEPCIIHR-OH; N-terminus and C-terminus assumed) | 3000 |  |  |  |
| CC[C@H](C)[C@H](NC(=O)CNC(=O)[C@H](Cc1ccccc1)NC(=O)[C@H](CCCNC(=N)N)NC(=O)[C@H](CCC(N)=O)NC(=O)[C@H](C)NC(=O)[C@H](CC(N)=O)NC(=O)[C@@H]1CCCN1C(=O)[C@H](CCCNC(=N)N)NC(=O)[C@H](CCCNC(=N)N)NC(=O)[C@H](CS)NC(=O)[C@H](CO)NC(=O)[C@H](CCC(N)=O)NC(=O)[C@H](CCC(=O)O)NC(=O)[C@H](CCCNC(=N)N)NC(=O)[C@H](C)NC(=O)[C@@H](NC(=O)[C@H](Cc1ccc(O)cc1)NC(=O)[C@@H](N)CCCNC(=N)N)C(C)C)C(=O)N[C@@H](CO)C(=O)N[C@@H](CC(N)=O)C(=O)N[C@@H](Cc1ccc(O)cc1)C(=O)N[C@@H](CS)C(=O)N[C@@H](CCC(N)=O)C(=O)N[C@H](C(=O)N[C@@H](Cc1ccc(O)cc1)C(=O)N1CCC[C@H]1C(=O)N1CCC[C@H]1C(=O)N[C@@H](CC(N)=O)C(=O)N[C@H](C(=O)N[C@@H](CC(N)=O)C(=O)N[C@@H](CCCCN)C(=O)N[C@H](C(=O)N[C@@H](CCCNC(=N)N)C(=O)N[C@@H](CCC(=O)O)C(=O)O)[C@@H](C)CC)C(C)C)[C@@H](C)CC [AllerDM1.54] (H-RYVAREQSCRRPNAQRFGISNYCQIYPPNVNKIRE-OH; N-terminus and C-terminus assumed) | 2000 |  |  | solubility in words [1]: solubility in water |
| HYMKCPLVKGQQYDIKYTWNVPKIAPKSENVVVTVKVLGDNGVLACAIATHAKIRD (cysteines drawn unpaired) [AllerDM2.5] | 1500 |  |  |  |
| DQVDVKDCANHEIKKVLVPGCHGSEPCIIHRGKPFQLEAVFEANQNTKTAKIEIKASIDGLEVDVPGIDPNA [AllerDM2.1] |  |  |  | IgE binding in competition ELISA (Der p 2) [2]: did not bind IgE; Conc. ([1]; pH 5): 1000 µg/mL |
| PNVNKIREALAQTHSAIAVIIGIKDLDAFRHYDGR [AllerDM1.63] | 2000 |  |  |  |
| CC[C@H](C)[C@H](NC(=O)CNC(=O)[C@H](Cc1ccccc1)NC(=O)[C@H](CCCNC(=N)N)NC(=O)[C@H](CCC(N)=O)NC(=O)[C@H](C)NC(=O)[C@H](CC(N)=O)NC(=O)[C@@H]1CCCN1C(=O)[C@H](CCCNC(=N)N)NC(=O)[C@H](CCCNC(=N)N)NC(=O)[C@H](CS)NC(=O)[C@H](CO)NC(=O)[C@H](CCC(N)=O)NC(=O)[C@H](CCC(=O)O)NC(=O)[C@H](CCCNC(=N)N)NC(=O)[C@H](C)N)C(=O)N[C@@H](CO)C(=O)N[C@@H](CC(N)=O)C(=O)N[C@@H](Cc1ccc(O)cc1)C(=O)N[C@@H](CS)C(=O)N[C@@H](CCC(N)=O)C(=O)N[C@H](C(=O)N[C@@H](Cc1ccc(O)cc1)C(=O)N1CCC[C@H]1C(=O)N1CCC[C@H]1C(=O)N[C@@H](CC(N)=O)C(=O)N[C@H](C(=O)N[C@@H](CC(N)=O)C(=O)N[C@@H](CCCCN)C(=O)N[C@H](C(=O)N[C@@H](CCCNC(=N)N)C(=O)N[C@@H](CCC(=O)O)C(=O)O)[C@@H](C)CC)C(C)C)[C@@H](C)CC [AllerDM1.5a] (H-AREQSCRRPNAQRFGISNYCQIYPPNVNKIRE-OH; N-terminus and C-terminus assumed) | 4700 |  |  | solubility in words [1]: solubility in water |
| SIDGLEVDVPGIDPNACHYMKCPLVKGQQYDIKYTWNVPKIAPKSENVVVTVKVLGD (cysteines drawn unpaired) [AllerDM2.10] |  |  |  | Conc. ([1]; H2O after acidification with HCl and neutralization with NaOH): 2000 µg/mL |
| PNVNKIREALAQTHSAIAVIIGIKDLDAFRHYDGRTIIQRDNGYQPNYHAVNIVGYSNAQGVDYWIVRNSWDT [AllerDM1.6] |  | 800 | responsible for the reactivity |  |
| KVLGDNGVLACAIATHAKIRD [AllerDM2.9] | 1000 |  |  |  |
| HGSEPCIIHRGKPFQLEALFEANQNSKTAKIEIKASIDGLEVDVPGIDPNACHYMK (cysteines drawn unpaired) [AllerDM2.4] |  | 4200 |  |  |
| LAEQELVDCASQHGCHGDTIPRGIEYIQHNGVVQESYYRYVAREQSCRRPNAQRFGISNYCQIYPPNVNKIRE [AllerDM1.5] |  | 1700 | responsible for the reactivity | solubility in words [1]: solubility in water |
| PNVNKIREALAQTHSAIAVIIGIKDLDAFRHYDGRTIIQRDNGYQPNYHAVNIVGYSNAQGVD [AllerDM1.62] |  | 2500 | residual IgE binding | effect of denaturing salts on IgE binding (Der p 1 competition ELISA) [3]: strongly diminished IgE binding |
| RHYDGRTIIQRDNGYQPNYHAVNIVGYSNAQGVD [AllerDM1.64] | 4000 |  |  |  |
| B1 |  | 2000 | Residual IgE binding was observed |  |
| B2 |  | 500 | Residual IgE binding was observed |  |
| B3 |  |  | no detectable IgE binding | solubility remark ([1]; 1.2: when added to Citrate buffer or PBS at 2 × 10^−5M): NaOH) Difficult pH8; Conc. ([1]; H2O, pH adjusted with HCl and NaOH): 1000 µg/mL |
| B4 |  |  | no detectable IgE binding | Conc. ([1]; Solvent 7M guanidinium chloride): 30000 µg/mL |
| B5 |  |  |  | Conc. ([1]; H2O after addition of HCl and NaOH and citrate buffer pH5.5): 1000 µg/mL |
